ChEMBL document CHEMBL5223082, “Alkyl-Aryl-Vancomycins: Multimodal Glycopeptides with Weak Dependence on the Bacterial Metabolic State” (J Med Chem, 2021)
Active and inactive are the calls of the source. The rule behind the calls is not given here.

Experiments:
Staphylococcus aureus [1] = assay: Bactericidal activity against methicillin-resistant Staphylococcus aureus ATCC 33591 assessed as log reduction in bacterial colonies incubated for 2 hrs in broth solution followed by culturing for 24 hrs on agar plate by spot plating method; format: functional; settings: time 26 hrs
[2] = Toxicity in BALB/c mouse assessed as adverse effects at 55.5 mg/kg, ip measured for 4 hrs; format: organism-based; settings: in vivo
Staphylococcus aureus [3] = assay: Antibacterial activity against Methicillin-resistant Staphylococcus aureus ATCC 33591 persister cells assessed as log reduction in bacterial colonies at 9 uM incubated for 2 hrs in broth solution followed by incubation on agar plate for 48 hrs by spot plating method; format: functional; settings: time 50 hrs
Staphylococcus aureus [4] = assay: Antibacterial activity against Methicillin-resistant Staphylococcus aureus ATCC 33591 assessed as inhibition of bacterial growth preincubated compound with N,N'-diacetyl-L-Lys-D-Ala-D-Ala for 10 mins followed by incubation with bacterial culture for 18 to 24 hrs by CLSI microbroth dilution method; format: functional; settings: time 1090-1450 min
Enterococcus [5] = assay: Potency index, ratio of Vancomycin MIC to test compound MIC for antibacterial activity against Vancomycin-resistant Enterococci ATCC 51575; format: functional
Enterococcus [6] = assay: Bactericidal activity against Vancomycin-resistant Enterococci assessed as log reduction in bacterial colonies at 4XMIC incubated for 24 hrs in broth solution followed by culturing for 24 hrs on agar plate by spot plating method; format: functional; settings: time 48 hrs
[7] = Cytotoxicity against human HEK293 cells assessed as cell viability at 0.5 to 30 uM incubated for 24 hrs by AlamarBlue assay; format: toxicity, cell-based; settings: dose 0.5-30 µM, read-out: Activity
Staphylococcus aureus [8] = assay: Antibiofilm activity against Methicillin-resistant Staphylococcus aureus ATCC 33591 assessed as log reduction in bacterial viability within the biofilms at 20 uM incubated for 24 hrs in broth solution followed by culturing on agar plate for 24 hrs by spot plating method; format: functional; settings: time 48 hrs
Enterococcus [9] = assay: Potency index, ratio of Vancomycin MIC to test compound MIC for antibacterial activity against Vancomycin-resistant Enterococci NR30909; format: functional, NR 30909
Cell membrane = assay: Induction of cytoplasmic membrane depolarization in Methicillin-resistant Staphylococcus aureus ATCC 33591 assessed as increase in fluorescence intensity at 10 uM measured for 35 to 40 mins by DiSC3(5) dye based fluorescence analysis; format: subcellular; settings: time 35-40 min
[10] = biological target: T1, Septum site-determining protein MinD (Bacillus subtilis (strain 168)) (UniProt Q01464); assay: Delocalization of GFP tagged-MinD in Bacillus subtilis 168 at PEC incubated for 15 mins by fluorescence microscopy
T1 sequence (whole entry): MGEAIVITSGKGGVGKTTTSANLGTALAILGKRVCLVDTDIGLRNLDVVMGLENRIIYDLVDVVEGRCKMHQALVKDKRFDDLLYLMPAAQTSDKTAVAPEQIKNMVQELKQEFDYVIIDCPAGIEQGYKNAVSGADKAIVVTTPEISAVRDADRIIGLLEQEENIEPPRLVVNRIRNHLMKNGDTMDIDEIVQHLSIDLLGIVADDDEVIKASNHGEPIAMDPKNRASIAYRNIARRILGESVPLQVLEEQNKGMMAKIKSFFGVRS

Staphylococcus aureus [11] = assay: Antibacterial activity against Methicillin-resistant Staphylococcus aureus ATCC 33591 assessed as inhibition of bacterial growth incubated for 18 to 24 hrs in presence of 50% human liver homogenate by CLSI microbroth dilution method; format: functional; settings: ATCC 33591, Liver, time 18-24 hrs
Staphylococcus aureus [12] = assay: Antibacterial activity against Methicillin-resistant Staphylococcus aureus ATCC 33591 infected in BALB/c mouse thigh infection model assessed as log reduction in bacterial load at 12 mg/kg, ip starting at 1 hr post-infection and measured at 24 hrs post-drug treatment; format: functional
Staphylococcus aureus [13] = assay: Potency index, ratio of Vancomycin MIC to test compound MIC for antibacterial activity against Vancomycin-resistant Staphylococcus aureus 4; format: functional
Staphylococcus aureus [14] = assay: Antibacterial activity against Vancomycin-resistant Staphylococcus aureus 12 assessed as inhibition of bacterial growth incubated for 18 to 24 hrs by CLSI microbroth dilution method; format: functional; settings: time 18-24 hrs
HEK293 = assay: Cytotoxicity against human HEK293 cells at 30 uM incubated for 24 hrs by calceinAM/PI staining based fluorescence microscopy; format: toxicity, cell-based; settings: hek293, 24 h
Enterococcus [15] = assay: Bactericidal activity against Vancomycin-resistant Enterococci assessed as reduction in bacterial colonies at MIC to 2XMIC incubated for 6 hrs in broth solution followed by culturing for 24 hrs on agar plate by spot plating method; format: functional, organism-based; settings: time 30.0 hrs
Staphylococcus aureus [16] = assay: Antibacterial activity against stationary phase of Methicillin-resistant Staphylococcus aureus ATCC 33591 assessed as log reduction in bacterial colonies at 9 uM incubated for 24 hrs in broth solution followed by incubation on agar plate for 48 hrs by spot plating method; format: functional; settings: time 72 hrs
[17] = Toxicity in BALB/c mouse assessed as animal's survival rate at 55.5 mg/kg, iv measured for 14 days; format: organism-based; settings: in vivo, time 14 day
Staphylococcus aureus [18] = assay: Antibacterial activity against Methicillin-resistant Staphylococcus aureus ATCC 33591 persister cells assessed as log reduction in bacterial colonies at 9 uM incubated for 24 hrs in broth solution followed by incubation on agar plate for 48 hrs by spot plating method; format: functional; settings: time 72 hrs
Enterococcus [19] = assay: Antibacterial activity against Vancomycin-resistant Enterococci ATCC 51559 assessed as inhibition of bacterial growth incubated for 18 to 24 hrs by CLSI microbroth dilution method; format: functional; settings: time 18-24 hrs
Enterococcus [20] = assay: Antibacterial activity against Vancomycin-resistant Enterococci NR30909 assessed as inhibition of bacterial growth incubated for 18 to 24 hrs by CLSI microbroth dilution method; format: functional; settings: time 18-24 hrs
[21] = Toxicity in BALB/c mouse assessed as adverse effects at 55.5 mg/kg, iv measured for 4 hrs; format: organism-based; settings: in vivo
Staphylococcus aureus [22] = assay: Antibacterial activity against Methicillin-resistant Staphylococcus aureus ATCC 33591 assessed as inhibition of bacterial growth measured after 27 passages; format: functional
Bacillus subtilis = assay: Antibacterial activity against Bacillus subtilis 168 assessed as inhibition of bacterial growth incubated for 18 hrs by turbidity based analysis; format: functional
Staphylococcus aureus [23] = assay: Antibiofilm activity against Methicillin-resistant Staphylococcus aureus ATCC 33591 assessed as bacterial biofilm thickness at 20 uM incubated for 24 hrs by confocal laser scanning microscopy (reference value: 8 micrometer); format: functional
Enterococcus [24] = assay: Potency index, ratio of Vancomycin MIC to test compound MIC for antibacterial activity against Vancomycin-resistant Enterococci NR30903; format: functional, NR 30903
Staphylococcus aureus [25] = assay: Bactericidal activity against methicillin-resistant Staphylococcus aureus ATCC 33591 assessed as eradication of viable bacterial cells at 4XMIC incubated for 6 hrs in broth solution followed by culturing for 24 hrs on agar plate by spot plating method; format: functional; settings: time 30 hrs
Enterococcus [26] = assay: Bactericidal activity against Vancomycin-resistant Enterococci assessed as log reduction in bacterial colonies at 4XMIC incubated for 6 hrs in broth solution followed by culturing for 24 hrs on agar plate by spot plating method; format: functional; settings: time 30 hrs
Staphylococcus aureus [27] = assay: Antibacterial activity against Vancomycin-resistant Staphylococcus aureus 1 assessed as inhibition of bacterial growth incubated for 18 to 24 hrs by CLSI microbroth dilution method; format: functional; settings: time 18-24 hrs
Staphylococcus aureus [28] = assay: Antibacterial activity against stationary phase of Methicillin-resistant Staphylococcus aureus ATCC 33591 assessed as log reduction in bacterial colonies at 9 uM incubated for 12 hrs in broth solution followed by incubation on agar plate for 48 hrs by spot plating method; format: functional; settings: time 60 hrs

CCCCCCCCCCNC(=O)C[N+](C)(C)CCCNC(=O)c1ccc(CN[C@@]2(C)C[C@H](O[C@H]3[C@H](Oc4c5cc6cc4Oc4ccc(cc4Cl)[C@@H](O)[C@@H](NC(=O)[C@@H](CC(C)C)NC)C(=O)N[C@@H](CC(N)=O)C(=O)N[C@H]6C(=O)N[C@H]4C(=O)N[C@H](C(=O)N[C@H](C(=O)O)c6cc(O)cc(O)c6-c6cc4ccc6O)[C@H](O)c4ccc(c(Cl)c4)O5)O[C@H](CO)[C@@H](O)[C@@H]3O)O[C@@H](C)[C@H]2O)cc1
Activity (Staphylococcus aureus [1]): 2 log10CFU/ml
Activity [2]: Non-Toxic
Activity (Staphylococcus aureus [3]): 2 log10CFU/ml
MIC (Staphylococcus aureus [4]): 0.9 µM
Ratio (Enterococcus [5]): 1384
Activity (Enterococcus [6]): 5 log10CFU/ml
viability at 24 h, up to 30 µM [7]: 100%
Activity (Staphylococcus aureus [8]): 2.2 log10CFU/ml
Ratio (Enterococcus [9]): 1384
Activity (Cell membrane): Active
Activity [10]: inactive
MIC (Staphylococcus aureus [11]): 0.9 µM
Activity (Staphylococcus aureus [12]): 2.8 log10CFU/g
Ratio (Staphylococcus aureus [13]): 1384
MIC (Staphylococcus aureus [14]): 0.9 µM
Activity (HEK293): Non-Toxic
Activity (Enterococcus [15]): inactive
Activity (Staphylococcus aureus [16]): 2.4 log10CFU/ml
survival at 336 h [17]: 100%
Activity (Staphylococcus aureus [18]): 6 log10CFU/ml
MIC (Enterococcus [19]): 3.6 µM
MIC (Enterococcus [20]): 0.9 µM
Activity [21]: Non-Toxic
MIC (Staphylococcus aureus [22]): 0.9 µM
MIC (Bacillus subtilis): 0.45 µM
Activity (Staphylococcus aureus [23]): 3.5 um
Ratio (Enterococcus [24]): 1384
Activity (Staphylococcus aureus [25]): 100%
Activity (Enterococcus [26]): 0.5 log10CFU/ml
MIC (Staphylococcus aureus [27]): 1.8 µM
Activity (Staphylococcus aureus [28]): 1.9 log10CFU/ml
